According to patent US20140163026A1, “8-ETHYL-6-(ARYL)PYRIDO[2,3-D]PYRIMIDIN-7(8H)-ONES FOR THE TREATMENT OF NERVOUS SYSTEM DISORDERS AND CANCER” (Afraxis Holdings, Inc., priority 2011, published 2014):

Key:
Format in all cases: biochemical
PAK1 = PAK1 (Homo sapiens, UniProt Q13153); assay: In vitro PAK inhibition assay (SelectScreen, Ser/Thr 19 peptide)
Outline: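 Kinase reaction ran in 50 mM HEPES pH 7.5, 0.01% BRIJ-35, 10 mM MgCl2, 1 mM EGTA with Ser/Thr 19 peptide for 60 min at room temperature, followed by 60 min protease development. Fluorescence gave percent phosphorylation. Compounds were tested as 10-point, 3-fold titrations in 1% DMSO final.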

PAK2 (PAK65) = PAK2 (PAK65) (Homo sapiens, UniProt Q13177); assay: In vitro PAK inhibition assay (SelectScreen, Ser/Thr 20 peptide)
Outline: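 FRET-based peptide cleavage assay: 0.29-6 ng PAK2 and 2 μM Ser/Thr 20 peptide in 50 mM HEPES pH 7.5, 10 mM MgCl2, 1 mM EGTA, 0.01% BRIJ-35, 1% DMSO final. Kinase reaction 60 min at room temperature, then 60 min development; 10-point 3-fold titrations, percent phosphorylation from fluorescence.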

PAK3 = PAK3 (Homo sapiens, UniProt O75914); assay: as above
Outline: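 PAK3 phosphorylation of Ser/Thr 20 peptide in 50 mM HEPES pH 7.5, 0.01% BRIJ-35, 10 mM MgCl2, 1 mM EGTA, 1% DMSO final; 60 min at room temperature, then 60 min development reaction with fluorescence read-out. 10-point 3-fold titrations; percent phosphorylation from 0% and 100% phosphopeptide controls.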

PAK4 = PAK4 (Homo sapiens, UniProt O96013); assay: as above
Outline: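 FRET-based Ser/Thr 20 peptide phosphorylation: 0.1-0.75 ng PAK4, 2 μM peptide in 50 mM HEPES pH 7.5, 10 mM MgCl2, 1 mM EGTA, 0.01% BRIJ-35, 1% DMSO; 60 min at room temperature, then 60 min protease development. 10-point 3-fold titrations; IC50 from sigmoidal fit.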

Sequence of PAK4 (O96013 whole entry): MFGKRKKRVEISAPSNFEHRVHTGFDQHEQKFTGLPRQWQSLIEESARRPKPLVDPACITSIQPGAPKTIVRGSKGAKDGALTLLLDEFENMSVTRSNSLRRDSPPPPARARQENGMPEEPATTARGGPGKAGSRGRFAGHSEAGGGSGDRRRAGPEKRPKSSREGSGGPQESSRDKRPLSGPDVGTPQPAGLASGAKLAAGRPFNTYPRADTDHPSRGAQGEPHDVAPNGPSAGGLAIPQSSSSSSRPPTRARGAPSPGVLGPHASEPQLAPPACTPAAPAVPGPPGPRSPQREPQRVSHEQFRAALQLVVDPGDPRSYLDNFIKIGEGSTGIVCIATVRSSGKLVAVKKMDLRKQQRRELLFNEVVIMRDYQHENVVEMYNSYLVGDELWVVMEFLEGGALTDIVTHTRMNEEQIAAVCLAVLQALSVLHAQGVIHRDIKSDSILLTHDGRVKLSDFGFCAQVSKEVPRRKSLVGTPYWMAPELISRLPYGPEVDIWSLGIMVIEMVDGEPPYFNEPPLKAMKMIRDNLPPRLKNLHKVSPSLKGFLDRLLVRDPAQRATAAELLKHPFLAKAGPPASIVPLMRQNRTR
Sequence of PAK2 (PAK65) (Q13177 whole entry): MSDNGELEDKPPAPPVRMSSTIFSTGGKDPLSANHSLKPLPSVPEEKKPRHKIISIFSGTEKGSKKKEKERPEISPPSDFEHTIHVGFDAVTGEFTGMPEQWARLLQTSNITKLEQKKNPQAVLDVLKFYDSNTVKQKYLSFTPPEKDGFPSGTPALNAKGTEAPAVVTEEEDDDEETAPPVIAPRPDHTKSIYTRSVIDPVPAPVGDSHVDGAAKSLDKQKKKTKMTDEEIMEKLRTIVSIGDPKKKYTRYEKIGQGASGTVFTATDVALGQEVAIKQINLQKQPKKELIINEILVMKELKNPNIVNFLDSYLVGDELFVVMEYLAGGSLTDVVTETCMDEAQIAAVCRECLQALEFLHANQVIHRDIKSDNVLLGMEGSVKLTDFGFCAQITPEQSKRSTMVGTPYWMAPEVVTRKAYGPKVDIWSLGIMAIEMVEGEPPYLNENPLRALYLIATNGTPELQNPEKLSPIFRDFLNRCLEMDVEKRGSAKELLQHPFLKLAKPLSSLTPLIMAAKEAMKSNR
Sequence of PAK1 (Q13153 whole entry): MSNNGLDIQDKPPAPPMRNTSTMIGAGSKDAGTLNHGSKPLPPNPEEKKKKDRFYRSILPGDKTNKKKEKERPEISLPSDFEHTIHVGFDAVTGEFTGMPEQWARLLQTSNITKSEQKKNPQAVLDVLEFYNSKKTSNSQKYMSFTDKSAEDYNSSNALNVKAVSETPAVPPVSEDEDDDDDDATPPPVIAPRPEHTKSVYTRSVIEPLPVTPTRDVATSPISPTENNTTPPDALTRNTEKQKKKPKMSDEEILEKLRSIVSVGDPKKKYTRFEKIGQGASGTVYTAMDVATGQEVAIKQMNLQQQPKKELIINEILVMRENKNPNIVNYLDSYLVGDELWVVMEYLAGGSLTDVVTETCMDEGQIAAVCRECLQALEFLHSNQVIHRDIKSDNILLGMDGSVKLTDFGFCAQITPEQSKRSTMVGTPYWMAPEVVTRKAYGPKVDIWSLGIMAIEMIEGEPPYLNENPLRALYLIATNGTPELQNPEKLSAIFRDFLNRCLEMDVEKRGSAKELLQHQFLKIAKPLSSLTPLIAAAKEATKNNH
Sequence of PAK3 (O75914 whole entry): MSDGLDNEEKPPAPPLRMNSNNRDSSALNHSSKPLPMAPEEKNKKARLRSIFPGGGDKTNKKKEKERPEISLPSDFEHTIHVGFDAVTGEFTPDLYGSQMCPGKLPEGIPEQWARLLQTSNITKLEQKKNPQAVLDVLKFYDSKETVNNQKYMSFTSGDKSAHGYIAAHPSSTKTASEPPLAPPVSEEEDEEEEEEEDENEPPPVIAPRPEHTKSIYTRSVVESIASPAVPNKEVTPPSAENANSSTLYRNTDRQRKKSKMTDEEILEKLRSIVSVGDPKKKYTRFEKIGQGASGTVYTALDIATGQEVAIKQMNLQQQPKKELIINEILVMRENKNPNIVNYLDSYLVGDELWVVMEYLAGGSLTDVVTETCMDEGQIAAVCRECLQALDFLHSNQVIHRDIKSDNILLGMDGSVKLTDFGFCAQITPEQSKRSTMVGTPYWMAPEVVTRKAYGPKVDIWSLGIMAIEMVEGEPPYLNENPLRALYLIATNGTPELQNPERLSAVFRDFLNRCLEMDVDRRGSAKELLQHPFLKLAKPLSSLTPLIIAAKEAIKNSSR

Row | Structure (SMILES) | IC50 (PAK1) | IC50 (PAK2 (PAK65)) | IC50 (PAK3) | IC50 (PAK4)
1 | CCn1c(=O)c(-c2ccc(-c3cnn(C)c3)cc2)cc2cnc(Nc3ccc(N4CCN(C)CC4)cc3)nc21 | 50 to 500 nM | 50 to 500 nM | 500 to 5000 nM | ≥ 5000 nM
2 | CCn1c(=O)c(-c2ccc(-c3cccc4[nH]ccc34)cc2Cl)cc2cnc(Nc3ccc(N4CCN(C)CC4)cc3)nc21 | < 50 nM | 50 to 500 nM | 50 to 500 nM | ≥ 5000 nM
3 | CCn1c(=O)c(-c2ccc(-c3cccc4ncccc34)cc2Cl)cc2cnc(Nc3ccc(N4CCN(C)CC4)cc3)nc21 | 50 to 500 nM | 50 to 500 nM | 50 to 500 nM | ≥ 5000 nM
4 | CCn1c(=O)c(-c2ccc(-c3ccnn3C)cc2)cc2cnc(Nc3ccc(N4CCN(C)CC4)cc3)nc21 | 50 to 500 nM | 500 to 5000 nM | 500 to 5000 nM | ≥ 5000 nM
5 | CCn1c(=O)c(-c2ccc(-c3noc(C)n3)cc2Cl)cc2cnc(Nc3ccc(CCN4CCOCC4)cc3)nc21 | 50 to 500 nM | 50 to 500 nM | 50 to 500 nM | ≥ 5000 nM
6 | CCn1c(=O)c(-c2ccc(-c3cccnc3F)cc2Cl)cc2cnc(Nc3ccc(CCN4CCCC4)cc3)nc21 | < 50 nM | < 50 nM | < 50 nM | 50 to 500 nM
7 | CCn1c(=O)c(-c2ccc(-c3cnc(C)s3)cc2Cl)cc2cnc(Nc3ccc(CCN4CCCC4)cc3)nc21 | < 50 nM | < 50 nM | < 50 nM | 500 to 5000 nM
8 | Cc1ncc(-c2ccc(-c3cc4cnc(Nc5ccc(C6CCNCC6)cc5)nc4n(C)c3=O)c(Cl)c2)s1 | < 50 nM | < 50 nM | 50 to 500 nM | 500 to 5000 nM
9 | CCn1c(=O)c(-c2ccc(-c3cnc(C)s3)cc2Cl)cc2cnc(Nc3ccc(CCN4CCOCC4)cc3)nc21 | 50 to 500 nM | 50 to 500 nM | 50 to 500 nM | ≥ 5000 nM
10 | CCn1c(=O)c(-c2ccc(-c3cccnc3C)cc2Cl)cc2cnc(Nc3ccc(CCN4CCOCC4)cc3)nc21 | 50 to 500 nM | 50 to 500 nM | 50 to 500 nM | ≥ 5000 nM
11 | CCn1c(=O)c(-c2ccc(-c3cccnc3C)cc2C)cc2cnc(Nc3ccc(C4CCN(C)CC4)cc3)nc21 | < 50 nM | 50 to 500 nM | 50 to 500 nM | ≥ 5000 nM
12 | CCn1c(=O)c(-c2ccc(-c3noc(C)n3)cc2C)cc2cnc(Nc3ccc(C4CCN(C)CC4)cc3)nc21 | < 50 nM | < 50 nM | < 50 nM | 500 to 5000 nM
13 | CCN(CC)CCc1ccc(Nc2ncc3cc(-c4ccc(-c5cccnc5C)cc4Cl)c(=O)n(CC)c3n2)cc1 | < 50 nM | < 50 nM | 50 to 500 nM | ≥ 5000 nM
14 | CCN(CC)CCc1ccc(Nc2ncc3cc(-c4ccc(-c5cccnc5F)cc4Cl)c(=O)n(CC)c3n2)cc1 | < 50 nM | < 50 nM | < 50 nM | 50 to 500 nM
15 | CCN(CC)CCc1ccc(Nc2ncc3cc(-c4ccc(-c5noc(C)n5)cc4Cl)c(=O)n(CC)c3n2)cc1 | < 50 nM | < 50 nM | < 50 nM | 500 to 5000 nM
16 | CCN(CC)CCc1ccc(Nc2ncc3cc(-c4ccc(-c5cnc(C)s5)cc4Cl)c(=O)n(CC)c3n2)cc1 | < 50 nM | < 50 nM | < 50 nM | 500 to 5000 nM
17 | CCn1c(=O)c(-c2ccc(-c3noc(C)n3)cc2F)cc2cnc(Nc3ccc(C4CCN(C)CC4)cc3)nc21 | < 50 nM | < 50 nM | 50 to 500 nM | ≥ 5000 nM
18 | CCn1c(=O)c(-c2ccc(-c3cnccn3)cc2F)cc2cnc(Nc3ccc(C4CCN(C)CC4)cc3)nc21 | < 50 nM | < 50 nM | < 50 nM | 50 to 500 nM
19 | Cc1ncccc1-c1cc(Cl)c(-c2cc3cnc(Nc4ccc(C5CCN(C)CC5)cc4)nc3n(C)c2=O)cc1F | 50 to 500 nM | 50 to 500 nM | 500 to 5000 nM | ≥ 5000 nM
20 | CN1CCC(c2ccc(Nc3ncc4cc(-c5cc(F)c(-c6cccnc6F)cc5Cl)c(=O)n(C)c4n3)cc2)CC1 | < 50 nM | < 50 nM | 50 to 500 nM | ≥ 5000 nM
21 | CCn1c(=O)c(-c2ccc(-c3cc(C)ncn3)cc2Cl)cc2cnc(Nc3ccc(C4CCN(C)CC4)cc3)nc21 | < 50 nM | 50 to 500 nM | 50 to 500 nM | ≥ 5000 nM
22 | CCn1c(=O)c(-c2ccc(-c3ccccc3F)cc2Cl)cc2cnc(Nc3ccc(C4CCN(C)CC4)cc3)nc21 | < 50 nM | < 50 nM | < 50 nM | 500 to 5000 nM

Row | Structure (SMILES) | IC50 (PAK1) | IC50 (PAK2 (PAK65)) | IC50 (PAK3) | IC50 (PAK4)
23 | CCn1c(=O)c(-c2ccc(-c3cnc(C)o3)cc2Cl)cc2cnc(Nc3ccc(C4CCN(C)CC4)cc3)nc21 | < 50 nM | 50 to 500 nM | 50 to 500 nM | ≥ 5000 nM
24 | CCn1c(=O)c(-c2ccc(-c3cc(C(F)(F)F)ncn3)cc2Cl)cc2cnc(Nc3ccc(C4CCN(C)CC4)cc3)nc21 | 50 to 500 nM | 50 to 500 nM | 50 to 500 nM | ≥ 5000 nM
25 | CCn1c(=O)c(-c2ccc(-c3cc(NC4CC4)ncn3)cc2Cl)cc2cnc(Nc3ccc(C4CCN(C)CC4)cc3)nc21 | 50 to 500 nM | 50 to 500 nM | 50 to 500 nM | ≥ 5000 nM
26 | CCn1c(=O)c(-c2ccc(-c3cc(C)nc(C)n3)cc2Cl)cc2cnc(Nc3ccc(C4CCN(C)CC4)cc3)nc21 | < 50 nM | < 50 nM | 50 to 500 nM | ≥ 5000 nM
27 | CCOC(=O)c1cncnc1-c1ccc(-c2cc3cnc(Nc4ccc(C5CCN(C)CC5)cc4)nc3n(CC)c2=O)c(Cl)c1 | 500 to 5000 nM | 500 to 5000 nM | 500 to 5000 nM | ≥ 5000 nM
28 | CCn1c(=O)c(-c2ccc(-c3cc(N(C)C)ncn3)cc2Cl)cc2cnc(Nc3ccc(C4CCN(C)CC4)cc3)nc21 | < 50 nM | 50 to 500 nM | 50 to 500 nM | ≥ 5000 nM
29 | CCn1c(=O)c(-c2ccc(-c3ncncc3F)cc2Cl)cc2cnc(Nc3ccc(C4CCN(C)CC4)cc3)nc21 | < 50 nM | < 50 nM | < 50 nM | 500 to 5000 nM
30 | CCn1c(=O)c(-c2ccc(-c3ccnc(C(F)(F)F)n3)cc2Cl)cc2cnc(Nc3ccc(C4CCN(C)CC4)cc3)nc21 | < 50 nM | < 50 nM | 50 to 500 nM | ≥ 5000 nM
31 | CCn1c(=O)c(-c2ccc(-c3noc(C)n3)nc2)cc2cnc(Nc3ccc(C4CCN(C)CC4)cc3)nc21 | 500 to 5000 nM | 500 to 5000 nM | 500 to 5000 nM | ≥ 5000 nM
32 | CCn1c(=O)c(-c2ccc(-c3cccnc3C)cn2)cc2cnc(Nc3ccc(C4CCN(C)CC4)cc3)nc21 | > 5000 nM | > 5000 nM | > 5000 nM | ≥ 5000 nM
33 | Cc1ncc(-c2cc(Cl)c(-c3cc4cnc(Nc5ccc(C6CCN(C)CC6)cc5)nc4n(C)c3=O)cc2F)s1 | < 50 nM | < 50 nM | < 50 nM | ≥ 5000 nM
34 | Cc1nc(-c2cc(Cl)c(-c3cc4cnc(Nc5ccc(C6CCN(C)CC6)cc5)nc4n(C)c3=O)cc2F)no1 | < 50 nM | < 50 nM | < 50 nM | ≥ 5000 nM
35 | CCn1c(=O)c(-c2ccc(-c3cnc(C)s3)cn2)cc2cnc(Nc3ccc(C4CCN(C)CC4)cc3)nc21 | 500 to 5000 nM | > 5000 nM | > 5000 nM | ≥ 5000 nM
36 | CCn1c(=O)c(-c2ccc(-c3cnc(C)s3)nc2)cc2cnc(Nc3ccc(C4CCN(C)CC4)cc3)nc21 | 500 to 5000 nM | 500 to 5000 nM | 500 to 5000 nM | ≥ 5000 nM
37 | CN1CCC(c2ccc(Nc3ncc4cc(-c5cc(-c6cccnc6)ccc5Cl)c(=O)n(C)c4n3)cc2)CC1 | 50 to 500 nM | 500 to 5000 nM | 500 to 5000 nM | ≥ 5000 nM
38 | CN(C)CCc1ccc(Nc2ncc3cc(-c4ccc(-c5cccnc5N(C)C)cc4Cl)c(=O)n(C)c3n2)cc1 | 50 to 500 nM | 500 to 5000 nM | 500 to 5000 nM | ≥ 5000 nM
39 | CCc1cc(-c2ccc(-c3cc4cnc(Nc5ccc(C6CCN(C)CC6)cc5)nc4n(CC)c3=O)c(Cl)c2)ncn1 | < 50 nM | < 50 nM | 50 to 500 nM | ≥ 5000 nM
40 | CCn1c(=O)c(-c2ccc(-c3noc(C)n3)cn2)cc2cnc(Nc3ccc(C4CCN(C)CC4)cc3)nc21 | 500 to 5000 nM | > 5000 nM | > 5000 nM | ≥ 5000 nM
41 | Cc1nccnc1-c1ccc(-c2cc3cnc(Nc4ccc(C5CCN(C)CC5)cc4)nc3n(C)c2=O)c(Cl)c1 | < 50 nM | < 50 nM | < 50 nM | ≥ 5000 nM
42 | CCn1c(=O)c(-c2cc(C)c(-c3cccnc3)cc2Cl)cc2cnc(Nc3ccc(C4CCN(C)CC4)cc3)nc21 | < 50 nM | < 50 nM | < 50 nM | 50 to 500 nM
43 | CCn1c(=O)c(-c2ccc(-c3nccnc3C)cc2Cl)cc2cnc(Nc3ccccc3)nc21 | 50 to 500 nM | 50 to 500 nM | 50 to 500 nM | ≥ 5000 nM
44 | CCn1c(=O)c(-c2cc(C)c(-c3cccnc3C)cc2Cl)cc2cnc(Nc3ccc(C4CCN(C)CC4)cc3)nc21 | < 50 nM | < 50 nM | 50 to 500 nM | ≥ 5000 nM
